Results taken from patent publication US20070027143A1, “Novel substituted 2,3-benzodiazepine derivatives” (priority 2003, published 2007).

Structure (SMILES)	melting point
CC(=O)Nc1ccc(C2=NN(C3=NCCO3)C(C)Cc3cc4c(cc32)OCO4)cc1 (racemic) [Example 127, (±)-5-(4-Acetylaminophenyl)-7-(4,5-dihydro-oxazol-2-yl)-8-methyl-8,9-dihydro-7H-1,3-dioxolo-[4,5-h][2,3]benzodiazepine]	124 to 128 °C
CC1=NN=C(N2N=C(c3ccc(N)cc3)c3cc4c(cc3CC2C)OCO4)SC1 (racemic) [Example 99, (±)-5-(4-Aminophenyl)-8-methyl-7-(5-methyl-6H-1,3,4-thiadiazin-2-yl)-8,9-dihydro-7H-1,3-dioxolo-[4,5-h][2,3]benzodiazepine]	154 to 157 °C
Cc1cc(C2=NN(c3nnc(CO)s3)[C@H](C)Cc3cc4c(cc32)OCO4)ccc1[N+](=O)[O-] [Example 140, (R)-7-(5-Hydroxymethyl-1,3,4-thiadiazol-2-yl)-8-methyl-5-(3-methyl-4-nitrophenyl)-8,9-dihydro-7H-1,3-dioxolo[4,5-h][2,3]benzodiazepine]	142 to 145 °C
CC1Cc2cc3c(cc2C(c2ccc(N)cc2)=NN1c1nnn[nH]1)OCO3 (racemic) [Example 107, (±)-5-(4-Aminophenyl)-8-methyl-7-(5-tetrazolyl)-8,9-dihydro-7H-1,3-dioxolo[4,5-h][2,3]benzodiazepine]	> 360 °C
CC1Cc2cc3c(cc2C(c2ccc(N)cc2)=NN1C1=NCCO1)OCO3 (racemic) [Example 82, (±)-5-(4-Aminophenyl)-7-(4,5-dihydro-oxazol-2-yl)-8-methyl-8,9-dihydro-7H-1,3-dioxolo-[4,5-h][2,3]benzodiazepine]	166 to 167 °C
CC1Cc2ccc(Cl)cc2C(c2ccc(N)cc2)=NN1c1nncs1 (racemic) [Example 93, (±)-1-(4-Aminophenyl)-8-chloro-4-methyl-3-(1,3,4-thiadiazol-2-yl)-4,5-dihydro-3H-[2,3]benzodiazepine]	125 to 128 °C
Cc1cc(C2=NN(c3nccs3)C(C)Cc3cc4c(cc32)OCO4)ccc1N (racemic) [Example 75, (±)-5-(4-Amino-3-methylphenyl)-8-methyl-7-(2-thiazolyl)-8,9-dihydro-7H-1,3-dioxolo-[4,5-h][2,3]benzodiazepine]	225 to 227 °C
Cc1nc(N2N=C(c3ccc(N)cc3)c3cc4c(cc3CC2C)OCO4)cs1 (racemic) [Example 110, (±)-5-(4-Aminophenyl)-8-methyl-7-(2-methyl-thiazol-4-yl)-8,9-dihydro-7H-1,3-dioxolo-[4,5-h][2,3]benzodiazepine]	132 to 135 °C
CC1=NC(N2N=C(c3ccc(N)cc3)c3cc4c(cc3CC2C)OCO4)NN1 (racemic) [Example 114, (±)-5-(4-Aminophenyl)-8-methyl-7-(5-methyl-1H(2H)-1,2,4-triazol-3-yl)-8,9-dihydro-7H-1,3-dioxolo-[4,5-h][2,3]benzodiazepine]	166 to 169 °C
CC1Cc2cc3c(cc2C(c2ccc(N)cc2)=NN1C1=NC(=O)C(C)(C)S1)OCO3 (racemic) [Example 193, (±)-5-(4-Aminophenyl)-8-methyl-7-(5,5-dimethyl-4-oxo-4,5-dihydrothiazol-2-yl)-8,9-dihydro-7H-1,3-dioxolo-[4,5-h][2,3]benzodiazepine]	124 to 130 °C
CC1Cc2cc3c(cc2C(c2ccc(N)cc2)=NN1C1=NN=C(NC2CC2)[SH]1C)OCO3 (racemic) [Example 92, (±)-5-(4-Aminophenyl)-7-(5-cyclopropylamino-methyl-1,3,4-thiadiazol-2-yl)-8-methyl-8,9-dihydro-7H-1,3-dioxolo[4,5-h][2,3]benzodiazepine]	135 to 138 °C
Cc1cc(C2=NN(c3nnc(CC#N)s3)[C@H](C)Cc3cc4c(cc32)OCO4)ccc1[N+](=O)[O-] [Example 142, (R)-7-(5-Cyanomethyl-1,3,4-thiadiazol-2-yl)-8-methyl-5-(3-methyl-4-nitrophenyl)-8,9-dihydro-7H-1,3-dioxolo[4,5-h][2,3]benzodiazepine]	118 to 122 °C
Cc1csc(N2N=C(c3ccc(N)cc3)c3cc4c(cc3CC2C)OCO4)n1 (racemic) [Example 63, (±)-5-(4-Aminophenyl)-8-methyl-7-(4-methyl-thiazol-2-yl)-8,9-dihydro-7H-1,3-dioxolo-[4,5-h][2,3]benzodiazepine]	190 to 191 °C
Cc1cc(C2=NN(c3nccs3)[C@H](C)Cc3cc4c(cc32)OCO4)cc(C)c1N [Example 189, (R)-5-(4-Amino-3,5-dimethylphenyl)-8-methyl-7-(thiazol-2-yl)-8,9-dihydro-7H-1,3-dioxolo-[4,5-h][2,3]benzodiazepine]	202 to 203 °C
C[C@@H]1Cc2cc3c(cc2C(c2ccc(N)cc2)=NN1c1cnns1)OCO3 [Example 186, (R)-5-(4-Aminophenyl)-8-methyl-7-(1,2,3-thiadiazol-5-yl)-8,9-dihydro-7H-1,3-dioxolo-[4,5-h][2,3]benzodiazepine]	220 to 221 °C
CC1Cc2cc3c(cc2C(c2ccc(N)cc2)=NN1c1ncccn1)OCO3 (racemic) [Example 111, (±)-5-(4-Aminophenyl)-8-methyl-7-(2-pyrimidinyl)-8,9-dihydro-7H-1,3-dioxolo[4,5-h][2,3]benzodiazepine]	233 to 235 °C
CC1Cc2cc3c(cc2C(c2ccc(N)cc2)=NN1C1=NC(=O)CCS1)OCO3 (racemic) [Example 73, (±)-5-(4-Aminophenyl)-7-(5,6-dihydro-4-oxo-4H-1,3-thiazin-2-yl)-8-methyl-8,9-dihydro-7H-1,3-dioxolo-[4,5-h][2,3]benzodiazepine]	226 to 228 °C
CC(=O)Nc1ccc(C2=NN(C3=NCCS3)[C@@H](C)Cc3cc4c(cc32)OCO4)cc1 [Example 126, (S)-5-(4-Acetylaminophenyl)-7-(4,5-dihydro-thiazol-2-yl)-8-methyl-8,9-dihydro-7H-1,3-dioxolo-[4,5-h][2,3]benzodiazepine]	148 to 154 °C
Cc1cc(C2=NN(c3nnc(CC#N)s3)[C@H](C)Cc3cc4c(cc32)OCO4)ccc1N [Example 173, (R)-5-(4-Amino-3-methylphenyl)-7-(5-cyanomethyl-1,3,4-thiadiazol-2-yl)-8-methyl-8,9-dihydro-7H-1,3-dioxolo[4,5-h][2,3]benzodiazepine]	135 to 140 °C
CC1Cc2cc3c(cc2C(c2ccc(N)cc2)=NN1c1nncs1)OCO3 (racemic) (hydrate or solvate) [Example 83, (±)-5-(4-Aminophenyl)-8-methyl-7-(1,3,4-thiadiazol-2-yl)-8,9-dihydro-7H-1,3-dioxolo-[4,5-h][2,3]benzodiazepine]	192 to 194 °C
CC(=O)Nc1ccc(C2=NN(c3ncccn3)C(C)Cc3cc4c(cc32)OCO4)cc1 (racemic) [Example 128, (±)-5-(4-Acetylaminophenyl)-8-methyl-7-(2-pyrimidinyl)-8,9-dihydro-7H-1,3-dioxolo-[4,5-h][2,3]benzodiazepine]	162 to 163 °C
Cc1cc(C2=NN(C3=NCCS3)[C@H](C)Cc3cc4c(cc32)OCO4)ccc1N [Example 163, (R)-5-(4-Amino-3-methylphenyl)-8-methyl-7-(4,5-dihydro-thiazol-2-yl)-8,9-dihydro-7H-1,3-dioxolo-[4,5-h][2,3]benzodiazepine]	125 to 128 °C
Cc1cc(C2=NN(c3nnc(C(C)C)s3)[C@H](C)Cc3cc4c(cc32)OCO4)ccc1N [Example 169, (R)-5-(4-Amino-3-methylphenyl)-7-(5-isopropyl-1,3,4-thiadiazol-2-yl)-8-methyl-8,9-dihydro-7H-1,3-dioxolo[4,5-h][2,3]benzodiazepine]	134 to 140 °C
C/C=C/c1nnc(N2N=C(c3ccc(N)c(C)c3)c3cc4c(cc3C[C@H]2C)OCO4)s1 [Example 177, (R)-5-(4-Amino-3-methylphenyl)-8-methyl-7-{5-[1-(1E)-propen-1-yl]-1,3,4-thiadiazol-2-yl}-8,9-dihydro-7H-1,3-dioxolo[4,5-h][2,3]benzodiazepine]	139 to 143 °C
CC1Cc2cc3c(cc2C(c2ccc(N)cc2)=NN1c1nc(=O)n(C)s1)OCO3 (racemic) [Example 103, (±)-5-(4-Aminophenyl)-8-methyl-7-(2-methyl-3-oxo-2,3-dihydro-1,2,4-thiadiazol-5-yl)-8,9-dihydro-7H-1,3-dioxolo[4,5-h][2,3]benzodiazepine]	213 °C
CC1Cc2cc3c(cc2C(c2ccc([N+](=O)[O-])cc2)=NN1c1nnc(CCl)s1)OCO3 (racemic) [Example 34, (±)-7-(5-Chloromethyl-1,3,4-thiadiazol-2-yl)-8-methyl-5-(4-nitrophenyl)-8,9-dihydro-7H-1,3-dioxolo[4,5-h][2,3]benzodiazepine]	210 to 211 °C
CC(=O)Nc1ccc(C2=NN(c3nnc(C)s3)C(C)Cc3cc4c(cc32)OCO4)cc1C (racemic) [Example 131, (±)-5-(4-Acetylamino-3-methylphenyl)-8-methyl-7-(5-methyl-1,3,4-thiadiazol-2-yl)-8,9-dihydro-7H-1,3-dioxolo[4,5-h][2,3]benzodiazepine]	258 to 262 °C
CC1Cc2cc3c(cc2C(c2ccc([N+](=O)[O-])cc2)=NN1c1nc(=O)n(C2CC2)s1)OCO3 (racemic) [Example 47, (±)-7-(2-Cyclopropyl-3-oxo-2,3-dihydro-1,2,4-thiadiazol-5-yl)-8-methyl-5-(4-nitrophenyl)-8,9-dihydro-7H-1,3-dioxolo[4,5-h][2,3]benzodiazepine]	246 to 247 °C
CSCc1nnc(N2N=C(c3ccc([N+](=O)[O-])c(C)c3)c3cc4c(cc3C[C@H]2C)OCO4)s1 [Example 143, (R)-8-Methyl-5-(3-methyl-4-nitrophenyl)-7-(5-methylthiomethyl-1,3,4-thiadiazol-2-yl)-8,9-dihydro-7H-1,3-dioxolo[4,5-h][2,3]benzodiazepine]	132 to 134 °C
Cc1nnc(N2N=C(c3ccc(N)cc3)c3cc4c(cc3CC2C)OCO4)s1 (racemic) [Example 85, (±)-5-(4-Aminophenyl)-8-methyl-7-(5-methyl-1,3,4-thiadiazol-2-yl)-8,9-dihydro-7H-1,3-dioxolo-[4,5-h][2,3]benzodiazepine]	143 to 148 °C
